Reference: publication PMC8397418, “Novel Bis-Thiazole Derivatives: Synthesis and Potential Cytotoxic Activity Through Apoptosis With Molecular Docking Approaches” (Frontiers in Chemistry, 2021)

How the values were obtained:
[1] = system: KF-28 cells; test: Annexin V-FITC/PI apoptosis assessment; assay type: cell-based, human; conditions: 48 h, cisplatin 10 μM, DMSO control 0.45%
Procedure: Therefore, we decided to use such technique to investigate if the cytotoxic effect of the compounds indicated by MTT and the cell cycle experiments is apoptotic cell death or not. For that purpose, two cell lines, KF-28 and A2780, were stained by annexin V/PI after treatment with different compounds vs. DMSO for two days in parallel with cisplatin as a reference drug. Results from annexin staining analysis show appreciated annexin V–stained populations when cells are treated with compounds 5a–c, 5f, and 9. […] Similar results were obtained from the other cell line, A2780, treated with the same compounds (Figure 2B).
The cells were seeded into six-well culture plates (3–5 × 10^5 cells/well) and incubated overnight at 37°C, under 5% CO2. The cells were then treated with indicated compounds for 48 h. Next, media supernatants and the cells were collected and washed with ice-cold PBS. Next, the cells were stained with PI (10 mg/ml) for 30 min and analyzed for DNA contents using flow cytometry analysis using an FL2 (λex/em 535/617 nm) signal detector (ACEA Novocyte™ flow cytometer, ACEA Biosciences, Inc., San Diego, CA, United States). For each sample, 12,000 events are acquired. Cell cycle distribution is calculated using a CytoFLex machine and analyzed by CytExpert software. Flow cytometric methodologies (annexin V/PI staining with cell cycle analyses) are carried out as previously described ([Nafie et al., 2020a]; [Nafie et al., 2020b]; [Gad et al., 2020]).

[2] = system: KF-28 cells; test: Quantitative RT-PCR of apoptosis-related genes; assay type: cell-based, human; conditions: 48 h
Procedure: Next, we investigated the pathway through which apoptosis is induced by compounds 5a, 5b, and 5f in KF-28 cells. For that purpose, after treating cells with each compound, RNA was extracted, cDNA was synthesized, and RT-PCR was performed to quantify the mRNA expression of pro-apoptotic genes (p53, bax, puma), caspases 3, 8 9, anti-apoptotic gene (Bcl-2), and Pim-1 kinase genes in KF-28 cells.
The cells were grown in 10 cm^2 culture dishes to a monolayer with a confluence of 90% in triplicates. After different treatments, the cells were washed twice with PBS and then pelleted by centrifugation for 5 min at 1800 rpm at 4°C. The cells were lysed by Trizol reagent (Invitrogen), and then total RNA was purified with the phenol/chloroform extraction method. Concentration and purity of RNA samples were measured using NanoDrop. The RNA purity was assessed as OD260/OD230 (≥1.5) using NanoDrop. gDNA was eliminated by DNase. The RNA from three biological samples was then pooled for mRNA analysis, cDNA was synthesized using the iScript kit (Bio-Rad, United States) according to the manufacturer’s recommendation, and RT-PCRs consisted of 8.34 µL Fluocycle® II SYBR® (Euroclone, Milan, Italy), 0.5 µL of both 10 µM forward and reverse primers, 1 µL cDNA, and 6.34 µL of H2O. All reactions were performed for 35 cycles using the following temperature profile: 95°C for 5 min (initial denaturation), 95°C for […] (denaturation), 55°C for […] (annealing), and 72°C for […] (extension) ([Nafie et al., 2020a]; [Sarhan et al., 2020]). Then, the Ct values were collected, with the folds of changes between all the samples.

[3] = system: MDA-MB-231 breast cancer cells; test: MTT cytotoxicity assay, MDA-MB-231; assay type: cell-based; conditions: Homo sapiens, MDA-MB-231; MTT, 72 h, n = 3; read-out: IC50 MDA-MB-231 (Breast)
Procedure: The synthesized derivatives were screened for their cytotoxic activities against five cancer cell lines (two breast cancer cell lines: MCF-7 and MDA-MB-231, two ovarian cancer cell lines: A2780 and KF-28, and one cervical cancer cell line: Hela). This study was performed using serial concentrations of 25, 50, 100, 150, and 200 µM of each compound using the MTT assay. Percentages of cell viability of the tested compounds with serial concentration against the tested panel of cell lines are depicted in Figure 1, in which there is a decrease in the cell viability with increasing concentrations in a dose–response pattern. […] Therefore, compounds 5a, 5b, and 5f were thought worthwhile to further investigate their effects as either cytotoxic or antiproliferative effects and whether any of them is an inducer of apoptotic cell death in the representative cancer cell lines KF-28 and A2780.
The human ovarian serous carcinoma cell line KF-28 was kindly provided by Prof. Yoshihiro Kikuchi (Department of Obstetrics and Gynecology, National Defense Medical College, Saitama, Japan), and A2780 cell line was purchased from the ECACC (ECACC 93112519). The cells were maintained in RPMI-1640 (Sigma-Aldrich, United States). The cervical cancer cell line, Hela cells, breast cancer cell line, MCF-7, and MDA-MB-231 were purchased from the ATCC and cultured in DMEM. Both types of media were supplemented with 2 mM L-glutamine (Lonza, Belgium), 10% FBS (Sigma, St. Louis, MO, United States), and 1% penicillin/streptomycin (Lonza, Belgium). All cells were incubated at 37°C in 5% CO2 atmosphere (NuAire). All cancer cell lines were cultured according to the routine tissue culture work as discussed by the Freshney group ([Freshney, 2010]). The cells were plated at a density of 5,000 cells in triplicates in a 96-well plate. On the next day, the cells were treated with the indicated compound(s) at the indicated concentrations in a final volume of 100 μL media. Cell viability was assessed after 72 h using MTT solution (Promega) ([Mosmann, 1983]). 20 μL of the reagent was added to each well, the plate was incubated for 3 h, […] was subsequently measured (570 nm) using a plate reader, and then the IC50 values were calculated using Excel ([Tantawy et al., 2020]).

SMILES | Total apoptotic cell death (annexin V-positive cells) [1] | Bcl-2 expression, maximum decrease [2] | Pim-1 kinase expression, maximum decrease [2] | bax mRNA level, maximum increase [2] | caspase 3 mRNA level, maximum increase [2] | caspase 9 mRNA level, maximum increase [2] | p53 mRNA relative expression [2] | puma mRNA level, maximum increase [2] | IC50 [3] | caspase 8 mRNA level, maximum increase [2]
Cc1[nH]c(=NN=C2CCC(=NN=c3[nH]c(C)c(N=Nc4ccccc4)s3)CC2)sc1N=Nc1ccccc1 [5a, 1,4-Bis((5-phenylazo-4-methylthiazol-2-ylidene)hydrazono)cyclohexane] | 38.21% | ≈ 0.5 fold | ≈ 0.31 fold | ~5.2 fold | ≈ 6.2 fold | ~5.6 fold | ≈ 4.07 fold | ≈ 5.08 fold |  | 
Cc1ccc(N=Nc2sc(=NN=C3CCC(=NN=c4[nH]c(C)c(N=Nc5ccc(C)cc5)s4)CC3)[nH]c2C)cc1 [5b, 1,4-Bis((5-(4-tolylazo)-4-methylthiazol-2-ylidene)hydrazono)cyclohexane] | 18.77% |  |  | ~3.33 fold |  |  | ≈ 3.41 fold | ≈ 4.14 fold | > 200 µM | 
Cc1[nH]c(=NN=C2CCC(=NN=c3[nH]c(C)c(N=Nc4ccccc4Cl)s3)CC2)sc1N=Nc1ccccc1Cl [5f, 1,4-Bis((5-(2-chlorophenylazo)-4-methylthiazol-2-ylidene)hydrazono)cyclohexane] |  | ≈ 0.76 fold | ≈ 0.86 fold | ~2.33 fold | ≈ 6.9 fold | ~6.0 fold | ≈ 3.81 fold | ≈ 3.14 fold | > 200 µM | ~5.5 fold
